This note sets out measurements from US8586318B2, “Restricted access media and methods for making restricted access media” (Board of Regents of the University of Nebraska, priority 2008, dated 2013).

The subject of assay [1] is anti-fluorescein antibodies. Briefly: Ultrafast extraction on anti-fluorescein RAM column, flow-based. Format: binding, mouse. The method, then: For chromatographic studies, 200 μL injections of samples containing 0.5 nM fluorescein or 3 nM of fluorescein-BSA were made at flow rates ranging from 0.1-1.0 mL/min. The injections were performed at room temperature using 0.067 M potassium phosphate buffer (pH 7.4) as the application buffer. Two or three replicate injections were made at each flow rate onto columns containing the anti-fluorescein IA-RAM support or the corresponding control support. […] The fraction of extracted fluorescein was calculated by comparing the areas of the non-retained peaks to those obtained using a control column. […] The retained species were eluted between studies by washing the column with a 0.067 M potassium phosphate buffer (pH 2.5) for 20 minutes. Elution was followed by a column regeneration step by applying 0.067 M phosphate application buffer (pH 7.4) for 10 minutes before each new sample injection. The RAM, specifically an IA-RAM made using anti-fluorescein antibody, was tested for use in a flow-based system for the selective, ultrafast extraction of fluorescein versus a fluorescein-BSA conjugate. This was accomplished by comparing the results obtained with a RAM column to results for a control column containing only diol silica.

For assay [2], the system named is anti-fluorescein antibodies. Description: Static binding of fluorescein or fluorescein-BSA to anti-fluorescein RAM support. Also on record: species or system mouse. As to conditions: 100 Å silica. The method, then: The binding properties of the anti-fluorescein IA-RAM support were initially determined before and after digestion by reacting this support with a known excess of fluorescein (sodium salt, MW=376 Da) or fluorescein-BSA conjugate (average MW=69.5 kDa). Studies were performed using anti-fluorescein antibodies covalently linked to Nucleosil Si-100 using the hydrazide-activation method. A 2 mg portion of the desired anti-fluorescein support was incubated with shaking in 1 mL of a 0.040 μg/mL fluorescein solution or 1 mL of 20 μg/mL fluorescein-BSA solution in 0.1 M potassium phosphate buffer (pH 7.4) at 4° C. for 30 minutes. The mixtures were centrifuged and the supernatant was analyzed for fluorescein or fluorescein-BSA content based on the fluorescence of the solutions. Standard solutions that contained 0.002-2.0 μg/mL fluorescein or 1-30 μg/mL of the fluorescein-BSA conjugate in 0.10 M potassium phosphate buffer (pH 7.4) were also analyzed. The amount of fluorescein or fluorescein-BSA bound to the anti-fluorescein IA-RAM supports was determined by comparing the final and initial concentrations of fluorescein or fluorescein-BSA that remained in solution. […] The fluorescein or fluorescein-BSA that was bound by anti-fluorescein antibodies was determined by determining the amount of the analytes that remained in solution after the incubation step.

Take “fluorescein-BSA conjugate: fluorescein conjugate of bovine serum albumin, prepared using fluorescein isothiocyanate, 12 mol fluorescein/mol protein”: in assay [1] (injected at 0.1 mL/min), the “retention on anti-fluorescein RAM column (in words)” value is “no significant degree of binding”. Moreover, the “extracted by anti-fluorescein RAM support” value in assay [1] (same conditions as used for fluorescein) is recorded as “less than 1%”. In addition, the “original binding capacity of the covalently linked antibodies” value in assay [2] (before papain treatment, hydrazide method, 30 minutes incubation) is recorded as 0.69 (±0.01) mg/g silica. In assay [2] (papain 90 minutes at 37° C., 1:100 (w/w)), the “decrease of binding capacity after treatment with papain” value amounted to 92%.
